Source: ChEMBL document CHEMBL3228010, “Potential antitumor agents. 29. Quantitative structure-activity relationships for the antileukemic bisquaternary ammonium heterocycles” (J Med Chem, 1979)

Key:
L1210 [1] = test: Antitumor activity against mouse L1210 cells […] in ip dosed C3H X DBA2 F1 hybrid mouse on day 0 and dosed at LD10 level once daily on days 1 to 5 assessed as increase in life span relative to control; assay type: functional
L1210 [2] = test: Antitumor activity against mouse L1210 cells […] in ip dosed C3H X DBA2 F1 hybrid mouse on day 0 and dosed once daily on days 1 to 5 assessed as increase in life span relative to control; assay type: functional
Mus musculus = test: Toxicity in ip dosed C3H X DBA2 F1 hybrid mouse […] with mouse L1210 cells on day 0 and dosed once daily on days 1 to 5 measured after 50 days; assay type: organism-based; details: in vivo, 1200 h
[3] = Lipophilic-hydrophilic balance, Rm of the compound by partition chromatography; assay type: physicochemical

Row | Structure (SMILES) | log(ILSmax) (L1210 [1]) | D40 (L1210 [2]) | LD10 (Mus musculus) | Rm [3]
1 | CC[n+]1cccc2cc(NC(=O)c3ccc(C(=O)Nc4ccc5c(ccc[n+]5CC)c4)nc3)ccc21.Cc1ccc(S(=O)(=O)[O-])cc1.Cc1ccc(S(=O)(=O)[O-])cc1 | 1.42 | 6 mg/kg | 6 mg/kg | -0.15
2 | CCC[n+]1cccc(NC(=O)c2ccc(NC(=O)/C=C/c3ccc(C(=O)Nc4ccc(C(=O)Nc5ccc[n+](CCC)c5)cc4)cc3)cc2)c1.Cc1ccc(S(=O)(=O)[O-])cc1.Cc1ccc(S(=O)(=O)[O-])cc1 | 1.95 | 11.5 mg/kg | 46 mg/kg | -0.2
3 | CC[n+]1cccc(NC(=O)c2ccc(NC(=O)c3ccc(C(=O)Nc4ccc(C(=O)Nc5ccc[n+](CC)c5)cc4)c(Cl)c3)cc2)c1.Cc1ccc(S(=O)(=O)[O-])cc1.Cc1ccc(S(=O)(=O)[O-])cc1 | 1.7 | 22 mg/kg | 29 mg/kg | 0.42
4 | CCC[n+]1ccc(Nc2ccc(NC(=O)c3ccc(Nc4cc[n+](CCC)c5ccc(N)cc45)cc3N)cc2)cc1.[I-].[I-] | 2.03 | 5.9 mg/kg | 20 mg/kg | 0.52
5 | CC[n+]1cccc2cc(NC(=O)c3ccc(C(=O)Nc4ccc(NC(=O)c5ccc6c(ccc[n+]6CC)c5)cc4)cc3)ccc21.Cc1ccc(S(=O)(=O)[O-])cc1.Cc1ccc(S(=O)(=O)[O-])cc1 | 1.9 | 35 mg/kg | 50 mg/kg | -0.35
6 | CC[n+]1c(C)cc(Nc2ccc(NC(=O)c3ccc(C(=O)Nc4ccc(Nc5cc(C)[n+](CC)c(N)n5)cc4)cc3)cc2)nc1N.Cc1ccc(S(=O)(=O)[O-])cc1.Cc1ccc(S(=O)(=O)[O-])cc1 | 2.09 | 69 mg/kg | 200 mg/kg | -0.4
7 | CCC[n+]1cccc2cc(NC(=O)/C=C/c3ccc(C(=O)Nc4ccc5c(ccc[n+]5CCC)c4)cc3)ccc21.Cc1ccc(S(=O)(=O)[O-])cc1.Cc1ccc(S(=O)(=O)[O-])cc1 | 2 | 4.3 mg/kg | 20 mg/kg | 0.5
8 | C[n+]1ccc(Nc2ccc(NC(=O)c3ccc(Nc4cc[n+](C)c5ccccc45)cc3N)cc2)cc1.[I-].[I-] | 2.18 | 1.1 mg/kg | 29 mg/kg | 0.24
9 | CCCCC[n+]1cccc2cc(NC(=O)COc3ccc(C(=O)Nc4ccc5c(ccc[n+]5CCCCC)c4)cc3)ccc21.Cc1ccc(S(=O)(=O)[O-])cc1.Cc1ccc(S(=O)(=O)[O-])cc1 | 1.53 | 100 mg/kg | 150 mg/kg | 0.78
10 | CCC[n+]1cccc(-c2ccc(NC(=O)/C=C/c3ccc(C(=O)Nc4ccc(-c5ccc(-c6ccc(-c7ccc[n+](CCC)c7)cc6)cc5)cc4)cc3)cc2)c1.Cc1ccc(S(=O)(=O)[O-])cc1.Cc1ccc(S(=O)(=O)[O-])cc1 | 2.2 | 6.4 mg/kg | 20 mg/kg | 0.02
11 | CCCC[n+]1cccc2cc(NC(=O)COc3ccc(C(=O)Nc4ccc5c(ccc[n+]5CCCC)c4)cc3)ccc21.Cc1ccc(S(=O)(=O)[O-])cc1.Cc1ccc(S(=O)(=O)[O-])cc1 | 1.96 | 80 mg/kg | 210 mg/kg | 0.41
12 | C[n+]1cccc2cc(NC(=O)c3ccc(-c4ccc(-c5ccc(-c6ccc(C(=O)Nc7ccc8c(ccc[n+]8C)c7)cc6)cc5)cc4)cc3)ccc21.Cc1ccc(S(=O)(=O)[O-])cc1.Cc1ccc(S(=O)(=O)[O-])cc1 | 1.9 | 10 mg/kg | 65 mg/kg | -0.52
13 | CCC[n+]1cccc2cc(NC(=O)c3ccc(C(=O)Nc4ccc5c(ccc[n+]5CCC)c4)cc3)ccc21.Cc1ccc(S(=O)(=O)[O-])cc1.Cc1ccc(S(=O)(=O)[O-])cc1 | 1.89 | 15 mg/kg | 21 mg/kg | 0.3
14 | CCC[n+]1cccc2cc(NC(=O)c3ccc(C(=O)Nc4ccc5c(ccc[n+]5CCC)c4)nc3)ccc21.Cc1ccc(S(=O)(=O)[O-])cc1.Cc1ccc(S(=O)(=O)[O-])cc1 | 1.51 | 14 mg/kg | 16 mg/kg | 0.05
15 | CC[n+]1cccc2cc(NC(=O)c3ccc(NC(=O)c4ccc(C(=O)Nc5ccc6c(ccc[n+]6CC)c5)cc4)cc3)ccc21.Cc1ccc(S(=O)(=O)[O-])cc1.Cc1ccc(S(=O)(=O)[O-])cc1 | 2.05 | 13 mg/kg | 45 mg/kg | -0.52
16 | CC[n+]1ccc(Nc2ccc(C(=O)Nc3ccc(Nc4cc[n+](CC)c5ccccc45)cc3)cc2)cc1.[Br-].[Br-] | 2.16 | 0.6 mg/kg | 10 mg/kg | 0.45
17 | CCC[n+]1ccc(-c2ccc(NC(=O)c3ccc(Nc4cc[n+](CCC)c5ccccc45)cc3)cc2)cc1.[Br-].[Br-] | 1.6 | 4.8 mg/kg | 4.8 mg/kg | 0.8

Row | Structure (SMILES) | log(ILSmax) (L1210 [1]) | D40 (L1210 [2]) | LD10 (Mus musculus) | Rm [3]
18 | CC[n+]1cccc(NC(=O)c2ccc(NC(=O)c3ccc(C(=O)Nc4ccc(C(=O)Nc5ccc[n+](CC)c5)cc4)c(OC)c3)cc2)c1.Cc1ccc(S(=O)(=O)[O-])cc1.Cc1ccc(S(=O)(=O)[O-])cc1 | 1.85 | 18 mg/kg | 20 mg/kg | 0.55
19 | CCCC[n+]1cccc(NC(=O)c2ccc(NC(=O)/C=C/c3ccc(C(=O)Nc4ccc(C(=O)Nc5ccc[n+](CCCC)c5)cc4)cc3)cc2)c1.Cc1ccc(S(=O)(=O)[O-])cc1.Cc1ccc(S(=O)(=O)[O-])cc1 | 1.72 | 14 mg/kg | 24 mg/kg | 0.4
20 | CC[n+]1ccc(Nc2ccc(NC(=O)c3ccc(Nc4cc[n+](CC)c5ccc(N)cc45)cc3)cc2N)cc1.[I-].[I-] | 2.1 | 1.5 mg/kg | 6.5 mg/kg | 0.15
21 | CCC[n+]1cc(-c2ccc(NC(=O)c3ccc(Nc4cc[n+](CCC)c5ccc(N)cc45)cc3N)cc2)c(N)nc1N.Cc1ccc(S(=O)(=O)[O-])cc1.Cc1ccc(S(=O)(=O)[O-])cc1 | 2.03 | 13.7 mg/kg | 50 mg/kg | 0.56
22 | CCC[n+]1ccc(-c2ccc(-c3ccc(-c4ccc(NC(=O)c5ccc(C(=O)Nc6ccc(-c7ccc(-c8ccc(-c9cc[n+](CCC)cc9)cc8)cc7)cc6)cc5)cc4)cc3)cc2)cc1.Cc1ccc(S(=O)(=O)[O-])cc1.Cc1ccc(S(=O)(=O)[O-])cc1 | 2.03 | 4.6 mg/kg | 10 mg/kg | 0.46
23 | CC[n+]1ccc(Nc2ccc(NC(=O)c3ccc(Nc4cc[n+](CC)c5ccccc45)cc3)cc2N)cc1.[I-].[I-] | 1.69 | 5.1 mg/kg | 10 mg/kg | 0.56
24 | CC[n+]1cccc(NC(=O)c2ccc(NC(=O)c3ccc(C(=O)Nc4ccc(C(=O)Nc5ccc[n+](CC)c5)cc4)c(C)c3)cc2)c1.Cc1ccc(S(=O)(=O)[O-])cc1.Cc1ccc(S(=O)(=O)[O-])cc1 | 1.85 | 9.6 mg/kg | 26 mg/kg | 0.38
25 | CC[n+]1cccc(NC(=O)c2ccc(NC(=O)c3cccc(C(=O)Nc4ccc(C(=O)Nc5ccc[n+](CC)c5)cc4)c3)cc2)c1.Cc1ccc(S(=O)(=O)[O-])cc1.Cc1ccc(S(=O)(=O)[O-])cc1 | 1.6 | 12 mg/kg | 12 mg/kg | 0.51
26 | CC[n+]1cccc(NC(=O)c2ccc(NC(=O)c3ccc(C(=O)Nc4ccc(C(=O)Nc5ccc[n+](CC)c5)c(N)c4)cc3)cc2N)c1.Cc1ccc(S(=O)(=O)[O-])cc1.Cc1ccc(S(=O)(=O)[O-])cc1 | 2.18 | 3.2 mg/kg | 10 mg/kg | -0.65
27 | C[n+]1cccc2cc(NC(=O)CCc3ccc(C(=O)Nc4ccc5c(ccc[n+]5C)c4)cc3)ccc21.Cc1ccc(S(=O)(=O)[O-])cc1.Cc1ccc(S(=O)(=O)[O-])cc1 | <1.4 |  | 270 mg/kg | 0.85
28 | CC[n+]1cccc(NC(=O)c2ccc(NC(=O)c3ccc(C(=O)Nc4ccc(C(=O)Nc5ccc[n+](CC)c5)cc4C)cc3)c(C)c2)c1.Cc1ccc(S(=O)(=O)[O-])cc1.Cc1ccc(S(=O)(=O)[O-])cc1 | <1.4 |  | 18 mg/kg | 0.47
29 | C[n+]1cccc2cc(NC(=O)c3ccc(C(=O)Nc4ccc5c(ccc[n+]5C)c4)cc3)ccc21.Cc1ccc(S(=O)(=O)[O-])cc1.Cc1ccc(S(=O)(=O)[O-])cc1 | <1.4 |  | 5 mg/kg | -0.21
30 | CCC[n+]1cccc(NC(=O)c2ccc(NC(=O)c3ccc(C(=O)Nc4ccc(C(=O)Nc5ccc[n+](CCC)c5)cc4)c(Cl)c3)cc2)c1.Cc1ccc(S(=O)(=O)[O-])cc1.Cc1ccc(S(=O)(=O)[O-])cc1 | <1.4 |  | 40 mg/kg | 0.75
31 | C[n+]1cccc2cc(NC(=O)/C=C/c3ccc(C(=O)Nc4ccc5c(ccc[n+]5C)c4)cc3)ccc21.Cc1ccc(S(=O)(=O)[O-])cc1.Cc1ccc(S(=O)(=O)[O-])cc1 | <1.4 |  | 3 mg/kg | -0.2
32 | C[n+]1ccccc1NC(=O)c1ccc(NC(=O)c2ccc(C(=O)Nc3ccc(C(=O)Nc4cccc[n+]4C)cc3)cc2)cc1.Cc1ccc(S(=O)(=O)[O-])cc1.Cc1ccc(S(=O)(=O)[O-])cc1 | <1.4 |  | 7 mg/kg | 0.11
33 | CCC[n+]1cccc(NC(=O)c2ccc(NC(=O)c3ccc(C(=O)Nc4ccc[n+](CCC)c4)cc3)cc2)c1.Cc1ccc(S(=O)(=O)[O-])cc1.Cc1ccc(S(=O)(=O)[O-])cc1 | <1.4 |  | 15 mg/kg | 0.65
